Consider 44 compounds from publication PMC7216583 (Parasites & Vectors, 2020).

Structures can show the parent of a compound that is named as a salt. Where two headings read alike, the source gives them in different places.

For the experiment, the system named is Toxoplasma gondii RH-2F tachyzoites. Put plainly: microbe, parasite or virus in culture. The conditions noted are these: 72 h.
Setting [1] is: read-out: Parasite inhibition (%) mean, preliminary screen of compound library, mean.
Where [2] appears, read: read-out: Parasite inhibition (%) mean.
Setting [3] is: read-out: Parasite inhibition (%) mean, preliminary screen, mean.

In the case of `O=C(O)CCCCC(CCSCc1ccccc1)SCc1ccccc1` (centres unmarked) [CPI-613], under setting [1], the inhibition of growth at 5 µM was found to be 31.1%.
Turning to `C#Cc1cccc(Nc2ncnc3cc(OC)c(OCCCCCCC(=O)NO)cc23)c1` [CUDC-101], under setting [2], the inhibition of growth at 5 µM amounted to 46.2%.
On to `O=C(O)c1ccc2c(c1)nc(Nc1cccc(Cl)c1)c1ccncc12` [CX-4945 (Silmitasertib)], for which, under setting [1], the inhibition of growth at 5 µM is 1.5%.
Regarding `CO[C@H]1C(=O)[C@@]2(C)[C@H]([C@@H](OC(=O)c3ccccc3)[C@@]3(O)C[C@H](OC(=O)[C@H](O)[C@@H](NC(=O)OC(C)(C)C)c4ccccc4)C(C)=C1C3(C)C)[C@]1(OC(C)=O)CO[C@@H]1C[C@H]2OC` [Cabazitaxel (Jevtana)], the inhibition of growth at 5 µM under setting [1] is 2.3%.
For the compound `Nc1nc(=O)c2c([nH]1)NC[C@H](CNc1ccc(C(=O)N[C@@H](CCC(=O)O)C(=O)O)cc1)N2C=O` [Calcium levofolinate (Calcium Folinate)], the inhibition of growth at 5 µM under setting [1] was 0.1%.
On the same count and under the same terms, in the case of `CN1C2=CC(=O)/C(=N\NC(N)=O)C=C2CC1S(=O)(=O)O` (centres unmarked) [Carbazochrome sodium sulfonate] it was 1.2%; in that of `CO/N=C(\C(=O)N[C@@H]1C(=O)N2C(C(=O)OCOC(=O)C(C)(C)C)=C(/C=C\c3scnc3C)CS[C@H]12)c1csc(N)n1` [Cefditoren pivoxil], 0.2%.
As to `CO/N=C(\C(=O)N[C@@H]1C(=O)N2C(C(=O)O)=C(Cn3ccc(=N)n3CCO)CS[C@H]12)c1csc(N)n1` [Cefoselis sulfate], the inhibition of growth at 5 µM under setting [1] is 12.1%.
For `C/C=C(\C)C(=O)N[C@@H](c1ccccc1)[C@@H](O)C(=O)O[C@H]1C[C@@]2(O)[C@@H](OC(=O)c3ccccc3)[C@@H]3[C@]4(OC(C)=O)CO[C@@H]4C[C@H](O)[C@@]3(C)C(=O)[C@H](OC(C)=O)C(=C1C)C2(C)C` [Cephalomannine], the inhibition of growth at 5 µM under setting [2] came to 22.4%.
Consider `Cc1cc(C2CCCCC2)n(O)c(=O)c1` [Ciclopirox (Penlac)], for which the inhibition of growth at 5 µM under setting [1] came out at 33.4%.
Consider `CCOC(=O)[C@H](CCc1ccccc1)N[C@H]1CCCN2CCC[C@H](C(=O)O)N2C1=O` [Cilazapril monohydrate (Inhibace)], for which the inhibition of growth at 5 µM under setting [3] was 11.9%.
For the compound `COc1cc(/C=C/C(=O)N2CCN(CC(=O)N3CCCC3)CC2)cc(OC)c1OC` [Cinepazide maleate], the inhibition of growth at 5 µM under setting [1] is 1.5%.
For the compound `COc1ccc(C[C@@H]2c3cc(OC)c(OC)cc3CC[N@+]2(C)CCC(=O)OCCCCCOC(=O)CC[N@@+]2(C)CCc3cc(OC)c(OC)cc3[C@H]2Cc2ccc(OC)c(OC)c2)cc1OC` [Cisatracurium besylate (Nimbex)], the inhibition of growth at 5 µM under setting [3] was 4.5%.
On the same count and under the same terms, with `CCCC(=O)OCOC(=O)C1=C(C)NC(C)=C(C(=O)OC)C1c1cccc(Cl)c1Cl` (centres unmarked) [Cleviprex (Clevidipine)] the figure was 23.8%.
Take `COC(=O)[C@H](c1ccccc1Cl)N1CCc2sccc2C1` [Clopidogrel (Plavix)]: the inhibition of growth at 5 µM under setting [2] is -0.4%.
With `Cc1onc(-c2ccccc2Cl)c1C(=O)N[C@@H]1C(=O)N2[C@@H](C(=O)O)C(C)(C)S[C@@H]12` [Cloxacillin sodium (Cloxacap)], the inhibition of growth at 5 µM under setting [1] was 0.2%.
On the same count and under the same terms, with `CC(C)c1nc(CN(C)C(=O)N[C@@H](CCN2CCOCC2)C(=O)N[C@H](CC[C@H](Cc2ccccc2)NC(=O)OCc2cncs2)Cc2ccccc2)cs1` [Cobicistat (GS-9350)] the figure was 0.8%; with `Cc1nc2c([nH]1)-c1ccccc1N(C(=O)c1ccc(NC(=O)c3ccccc3-c3ccccc3)cc1)CC2` [Conivaptan HCl (Vaprisol)], 6.6%; with `CC(=O)OCC(=O)[C@]1(O)CC[C@H]2[C@@H]3CCC4=CC(=O)CC[C@]4(C)[C@@H]3C(=O)C[C@@]21C` [Cortisone acetate (Cortone)], 44.8%.
Same read-out and setting: in the case of `N#CCNC(=O)c1ccc(-c2ccnc(Nc3ccc(N4CCOCC4)cc3)n2)cc1` [Cyt387] it was 28.9%.
The same measure, in the same setting: with `OC[C@@H](O)[C@@H](O)[C@H](O)[C@H](O)CO` [D-Mannitol (Osmitrol)] the figure was 0.2%.
As to `CNC(=O)c1cc(Oc2ccc(NC(=O)Nc3cc(C(C)(C)C)nn3-c3ccc4ncccc4c3)c(F)c2)ccn1` [DCC-2036 (Rebastinib)], the inhibition of growth at 5 µM under setting [1] stood at 25.5%.
Consider `Cc1ccc2c(=O)c3cccc(CC(=O)O)c3oc2c1C` [DMXAA (ASA404)], for which the inhibition of growth at 5 µM under setting [3] is -33.6%.
For `CN(C)/N=N/c1[nH]cnc1C(N)=O` [Dacarbazine (DTIC-Dome)], the inhibition of growth at 5 µM under setting [3] worked out at 5.8%.
For the compound `CN(C)[C@@H](CCOc1cccc2ccccc12)c1ccccc1` [Dapoxetine HCl (Priligy)], under setting [3], the inhibition of growth at 5 µM is 0.8%.
For `CN(C)[C@@H](CCOc1cccc2ccccc12)c1ccccc1` [Dapoxetine hydrochloride (Priligy)], the inhibition of growth at 5 µM under setting [1] is -0.2%.
In the case of `Cc1nc(Nc2ncc(C(=O)Nc3c(C)cccc3Cl)s2)cc(N2CCN(CCO)CC2)n1` [Dasatinib (BMS-354825)], the inhibition of growth at 5 µM under setting [3] came to 10.5%.
In the case of `O=C(O)c1ccc(-n2nc(-c3ccccc3O)nc2-c2ccccc2O)cc1` [Deferasirox (Exjade)], under setting [1], the inhibition of growth at 5 µM was -0.6%.
As to `Cc1cccc(Cc2c[nH]cn2)c1C` [Detomidine HCl], the inhibition of growth at 5 µM under setting [3] was 60.4%.
As for `O=C[C@H](O)[C@@H](O)[C@H](O)[C@H](O)CO` [Dextrose (D-glucose)], the inhibition of growth at 5 µM under setting [1] is -33.7%.
Still for that read-out and setting: in the case of `CCCCOc1cc(C(=O)NCCN(CC)CC)c2ccccc2n1` [Dibucaine (Cinchocaine) HCl] it was 8.9%; in that of `O=C(O)Cc1ccccc1Nc1c(Cl)cccc1Cl` [Diclofenac Diethylamine], -21.2%.
With `C[C@]12CCC3=C4CCC(=O)C=C4CC[C@H]3[C@@H]1CC[C@@]2(O)CC#N` [Dienogest], the inhibition of growth at 5 µM under setting [3] worked out at 12%.
As for `COc1ccc([C@@H]2Sc3ccccc3N(CCN(C)C)C(=O)[C@@H]2OC(C)=O)cc1` [Diltiazem HCl (Tiazac)], the inhibition of growth at 5 µM under setting [1] is -15.8%.
Take `O=S(=O)(O)CCSSCCS(=O)(=O)O` [Dimesna]: the inhibition of growth at 5 µM under setting [3] is -0.8%.
As to `CCCC(CCC)C(=O)O` [Divalproex sodium], the inhibition of growth at 5 µM under setting [3] turned out to be 1.4%.
As for `C[C@@H](O)[C@H]1C(=O)N2C(C(=O)O)=C(S[C@@H]3CN[C@H](CNS(N)(=O)=O)C3)[C@H](C)[C@H]12` [Doripenem Hydrate], under setting [1], the inhibition of growth at 5 µM amounted to 0.8%.
Turning to `C=C1/C(=C/C=C2\CCC[C@@]3(C)[C@H]2CC[C@H]3[C@H](C)/C=C/[C@@H](C)C(C)C)C[C@H](O)C[C@@H]1O` [Doxercalciferol (Hectorol)], the inhibition of growth at 5 µM under setting [1] was determined as 0.1%.
For the compound `CCCCc1oc2ccc(NS(C)(=O)=O)cc2c1C(=O)c1ccc(OCCCN(CCCC)CCCC)cc1` [Dronedarone HCl (Multaq)], the inhibition of growth at 5 µM under setting [1] came to 2.5%.
On the same count and under the same terms, in the case of `N[C@H](C(=O)O)[C@H](O)c1ccc(O)c(O)c1` [Droxidopa (L-DOPS)] it was 39.8%.
Take `CN(NC(=O)CC(=O)NN(C)C(=S)c1ccccc1)C(=S)c1ccccc1` [Elesclomol]: the inhibition of growth at 5 µM under setting [3] came to 0.9%.
Take `C[C@H](N[C@@H](CCc1ccccc1)C(=O)O)C(=O)N1CCC[C@H]1C(=O)O` [Enalaprilat dihydrate]: under setting [3], the inhibition of growth at 5 µM turned out to be 33.9%.
Consider `C=C1[C@H](CO)[C@@H](O)C[C@@H]1n1cnc2c(=O)[nH]c(N)nc21` [Entecavir hydrate], for which, under setting [1], the inhibition of growth at 5 µM worked out at 9.8%.
Consider `Oc1ccc([C@H]2COc3cc(O)ccc3C2)cc1` [Equol], for which the inhibition of growth at 5 µM under setting [1] was -5.6%.
